Legend:
[1] = tested on: Ang II induced cADPR production in rat cardiomyocytes; assay: Ang II-induced [cADPR]i in cardiomyocytes; type: cell-based; details: pretreatment
Protocol: [cADPR]i was measured using a cyclic enzymatic assay as described previously [Graeff et al., Biochem. J. (2002)361:379-84]. Aplysia californica ADPR-cyclase was purified from […] according to the method described [Lee et al., Cell Regul. (1991)2:203-9]. Briefly, MMCs were treated with 0.3 ml of 0.6 M perchloric acid under sonication after Ang II treatment. Precipitates were removed by centrifugation at 20,000×g for 10 min. […] After centrifugation for 10 min at 1500×g, the aqueous layer was collected and neutralized with 20 mM sodium phosphate (pH 8). To remove all contaminating nucleotides, the samples were incubated with the following hydrolytic enzymes overnight at 37° C.: 0.44 unit/ml nucleotide pyrophosphatase, 12.5 units/ml alkaline phosphatase, 0.0625 unit/ml NADase, and 2.5 mM MgCl2 in 20 mM sodium phosphate buffer (pH 8.0). Enzymes were removed by filtration using Centricon-3 filters. […] An increase in the resorufin fluorescence was measured at 544 nm excitation and 590 nm emission using a fluorescence plate reader (Molecular Devices Corp., Spectra-Max GEMINI). […] Measurement of [cADPR]i in cardiomyocytes were determined as described above examples 5. […]

[2] = tested on: ADPR-cyclase purified partially from rat heart; assay: ADPR-cyclase activity assay, heart enzyme; type: biochemical; design: dose or concentration left out as unconfirmed
Protocol: (§1) FIGS. 1A and 1B show the inhibition of rat kidney ADPR-cyclase that was incubated with […] NGD^+ or e-NAD^+ in the presence of various concentrations of 4,4′-dihydrioxyazobenzene (DHAB) at 37° C. for 10 min and effects of DHAB on human CD38, rat brain, heart, spleen, and kidney ADPR-cyclase. FIGS. 1A and 1B are referred to as FIG. 1 herein.
(§2) Specific ADPR-cyclase activity was determined by measuring cyclic GDP-ribose (cGDPR) or etheno-ADP-ribose (e-cADPR) fluorometrically using NGD^+ or e-NAD^+ as a substrate [Greaff et al., Biochem. J. (2002)361:379-84]. Samples were incubated in the presence […] NGD^+ or e-NAD^+ with and without an appropriate agent in an assay buffer (25 mM HEPES, pH 7.4, 100 mM NaCl, and 0.1% Triton X-100) in a […]. The reaction mixture was incubated at 37° C. for 10 min. The reaction was stopped by adding […] trichloroacetic acid (10%). […] Fluorescence of cGDPR or e-ADPR in the solution was determined at excitation/emission wavelengths of 297/410 nm (HITACHI F-2000 fluorescence spectrophotometer). cADPR-hydrolase activity was determined by incubating cADPR with ADPR-cyclase or CD38 at 37° C. for 20 min. Hydrolysis of cADPR was analyzed by high performance liquid chromatography as described (White et al., 2000). […]

STZ diabetic mice = assay: Diabetic nephropathy in STZ diabetes mouse model; type: in vivo; details: 45 μg/kg i.p. once a day for 6 weeks, mean SE, n = 6
Protocol: Male mice, weighing 20 25 g, were made diabetic by a single intravenous injection of STZ (65 mg/kg body weight) in 0.05 M citrate buffer (pH 4.8). At the same day, the control mice were injected with the citrate buffer. After 2 days, induction of diabetes was confirmed by tail blood glucose level measurement by using the LifeScan One Touch glucometer (Johnson & Johnson). The diabetic mice (>16 mM blood glucose) were randomly divided into two groups; 6 mice per group treated with vehicle (0.1% DMSO in saline, 100 μl) or DHAB (45 μg/kg body weight in 0.1% DMSO in saline, 100 μl) and resveratrol (45 μg/kg body weight in 0.1% DMSO in saline, 100 μl) administered by intraperitoneal injection once a day for 6 weeks. The control mice were 6 mice per group treated with the vehicle. On day 39, the mice were detained in individual metabolic cages for 24 h for urine collection. On day 42, the mice were anesthetized with diethyl ether, and blood samples were taken from the abdominal aorta. Bilateral kidneys were rapidly removed and weighed. Urine was gravimetrically collected, and urinary albumin concentrations were determined with an enzyme-linked immunosorbent assay using a murine microalbuminuria kit (Albuwell; Exocell, Philadelphia, Pa.). Urine and serum creatinine levels were measured using the QuantiChrom Creatinine Assay Kit (BioAssay Systems, Hayward, Calif.), following the manufacturer's protocol.

human CD38 = molecular target: T1, human CD38 (Homo sapiens, UniProt P28907); assay: ADPR-cyclase activity assay, CD38; type: biochemical; design: dose or concentration left out as unconfirmed
T1 sequence (P28907 1-300): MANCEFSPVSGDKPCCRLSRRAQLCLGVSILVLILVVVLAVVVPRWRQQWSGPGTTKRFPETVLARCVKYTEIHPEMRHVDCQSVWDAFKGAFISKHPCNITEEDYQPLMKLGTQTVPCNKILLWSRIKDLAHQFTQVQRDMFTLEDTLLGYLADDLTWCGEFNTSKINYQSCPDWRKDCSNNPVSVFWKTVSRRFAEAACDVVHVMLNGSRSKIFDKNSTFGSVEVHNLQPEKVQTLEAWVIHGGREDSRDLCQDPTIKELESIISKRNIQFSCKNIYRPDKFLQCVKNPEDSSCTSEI
Protocol: as §1, §2

sensitivity of enzyme activity to compound [2] | sensitivity of enzyme activity to compound (human CD38) | SMILES | effect on Ang II-mediated [cADPR]i [1] | Urine output (STZ diabetic mice; 24 h metabolic cage) | Body Weight (STZ diabetic mice) | Food intake (STZ diabetic mice) | Plasma glucose (STZ diabetic mice) | Urinary Albumin (STZ diabetic mice) | Water intake (STZ diabetic mice)
 |  | Oc1ccccc1/N=N/c1ccccc1O [2,2′-DHAB, 2,2′-Dihydroxyazobenzene] | inhibited |  |  |  |  |  | 
insensitive | insensitive | Oc1ccc(N=Nc2ccc(O)cc2)cc1 [4,4′-DHAB, 4,4′-Dihydroxyazobenzene] |  | 2.27 ± 1.80 mL/day | 22.1 ± 0.58 g | 2.27 ± 0.61 g | 342 ± 36.1 mg/dL | 4.01 ± 3.61 µg/day | 2.00 ± 1.73 mL
